Patent publication US20250082674A1, “METHODS OF TREATING COPPER METABOLISM-ASSOCIATED DISEASES OR DISORDERS” (priority 2021, published 2025)
Like-named read-outs stand apart in the source and are kept apart here.

Source text: Adverse events were reported by the patient (or, when appropriate, by a caregiver, surrogate, or the patient's legally authorized representative). The Investigator and any qualified designees were responsible for detecting, documenting, and recording events that meet the definition of an AE or SAE and remain responsible for following up AEs that were serious, considered related to the study intervention or study procedures, or that caused the patient to discontinue the study.
Acute worsening of neurologic symptoms typically within 6 months of start of therapy is a known complication associated with chelation therapy for WD. […] Neurologic AESI for Study 301 were considered as all AEs in the Medical Dictionary for Regulatory Activities (MedDRA) System Organ Class (SOC) “Nervous system disorders” or any other AE judged by the Investigator as an AESI.

[1] = Hematological AEs, Primary Evaluation Period, Safety Set, BC-TTM N = 137, SoC N = 70
[2] = Primary Evaluation Period, 48 Weeks, BC-TTM N = 137, SoC N = 70
[3] = Primary Evaluation Period, Safety Set, BC-TTM N = 137, SoC N = 70
[4] = Study 301, Primary Evaluation Period

Bis-choline tetrathiomolybdate [BC-TTM]
Anemia, E events [1]: 7 | Anemia, N participants [1]: 6 | Anemia, participants (%) [1]: 4.4% | Leukopenia, E events [1]: 3 | Leukopenia, N participants [1]: 2 | Leukopenia, participants (%) [1]: 1.5% | Neutropenia, E events [1]: 6 | Neutropenia, N participants [1]: 6 | Neutropenia, participants (%) [1]: 4.4% | Neutrophil count decreased, E events [1]: 4 | Neutrophil count decreased, N participants [1]: 2 | Neutrophil count decreased, participants (%) [1]: 1.5% | Thrombocytopenia, E events [1]: 2 | Thrombocytopenia, N participants [1]: 1 | Thrombocytopenia, participants (%) [1]: 0.7% | Alanine aminotransferase increased, N participants [2]: 20 | Alanine aminotransferase increased, participants (%) [2]: 14.6% | Aspartate aminotransferase increased, N participants [2]: 4 | Aspartate aminotransferase increased, participants (%) [2]: 2.9% | Ear and labyrinth disorders, N participants [2]: 7 | Ear and labyrinth disorders, participants (%) [2]: 5.1% | Fatigue, N participants [2]: 13 | Fatigue, participants (%) [2]: 9.5% | Gamma-glutamyltransferase increased, N participants [2]: 3 | Gamma-glutamyltransferase increased, participants (%) [2]: 2.2% | Hepatic enzyme increased, N participants [2]: 3 | Hepatic enzyme increased, participants (%) [2]: 2.2% | Hepatobiliary disorders, N participants [2]: 9 | Hepatobiliary disorders, participants (%) [2]: 6.6% | Investigations, N participants [2]: 46 | Investigations, participants (%) [2]: 33.6% | Nervous system disorders, N participants [2]: 47 | Nervous system disorders, participants (%) [2]: 34.3% | Neutrophil count decreased, N participants [2]: 2 | Neutrophil count decreased, participants (%) [2]: 1.5% | Pruritus, N participants [2]: 5 | Pruritus, participants (%) [2]: 3.6% | Psychiatric disorders, N participants [2]: 26 | Psychiatric disorders, participants (%) [2]: 19.0% | Pyrexia, N participants [2]: 8 | Pyrexia, participants (%) [2]: 5.8% | Rash, N participants [2]: 9 | Rash, participants (%) [2]: 6.6% | Skin and subcutaneous tissue disorders, N participants [2]: 30 | Skin and subcutaneous tissue disorders, participants (%) [2]: 21.9% | ALT increased, E events [3]: 25 | ALT increased, N participants [3]: 20 | ALT increased, participants (%) [3]: 14.6% | AST increased, E events [3]: 4 | AST increased, N participants [3]: 4 | AST increased, participants (%) [3]: 2.9% | GGT increased, E events [3]: 3 | GGT increased, N participants [3]: 3 | GGT increased, participants (%) [3]: 2.2% | Hepatic enzyme increased, E events [3]: 5 | Hepatic enzyme increased, N participants [3]: 3 | Hepatic enzyme increased, participants (%) [3]: 2.2% | Hepatic function abnormal, E events [3]: 3 | Hepatic function abnormal, N participants [3]: 3 | Hepatic function abnormal, participants (%) [3]: 2.2% | Hyperbilirubinemia, E events [3]: 1 | Hyperbilirubinemia, N participants [3]: 1 | Hyperbilirubinemia, participants (%) [3]: 0.7% | Hypertransaminasemia, E events [3]: 4 | Hypertransaminasemia, N participants [3]: 2 | Hypertransaminasemia, participants (%) [3]: 1.5% | Jaundice, E events [3]: 1 | Jaundice, N participants [3]: 1 | Jaundice, participants (%) [3]: 0.7% | LFT abnormal, E events [3]: 2 | LFT abnormal, N participants [3]: 2 | LFT abnormal, participants (%) [3]: 1.5% | LFT increased, E events [3]: 4 | LFT increased, N participants [3]: 4 | LFT increased, participants (%) [3]: 2.9% | Liver disorder, E events [3]: 1 | Liver disorder, N participants [3]: 1 | Liver disorder, participants (%) [3]: 0.7% | ALT increased as share of treatment-emergent adverse events (25/577) (Study 301): 4.3% | incidence of AE ALT increased (Study 301): 14.6% | incidence of SAEs, Nervous system disorders (Study 301): 4.4% | incidence of hematologic AEs, BC-TTM versus SoC (Study 301): similar | participants with Grade 4 AEs, Nervous system disorders (Study 301): 1 participant | participants with Grade 5 AEs, Nervous system disorders (Study 301): 1 participant | participants with highest severity Grade 1 AEs, Nervous system disorders (Study 301): 24.1% | participants with highest severity Grade 2 AEs, Nervous system disorders (Study 301): 13.9% | participants with neurologic AESI in the SOC Psychiatric disorders (Study 301): 3.6% | AEs in SOC Ear and labyrinth disorders [4]: 5.1% | AEs in SOC Hepatobiliary disorders [4]: 6.6% | AEs in SOC Investigations [4]: 33.6% | AEs in SOC Psychiatric disorders [4]: 19.0% | AEs in SOC Skin and subcutaneous tissue disorders [4]: 21.9% | incidence of AEs in the SOC Nervous system disorders [4]: 34.3% | incidence of headache [4]: 8.0% | incidence of tremor [4]: 7.3% | participants discontinued due to AE of anemia (Grade 1) (clinical program for BC-TTM): 1 participant | participants discontinued due to AE of neutropenia (Grade 2) (clinical program for BC-TTM): 1 participant | overall safety profile (participants with WD): acceptable safety profile and is generally well-tolerated
